Measurements taken from patent publication US8324247B2, “Method for treating pulmonary arterial hypertension” (Ventrus Biosciences, Inc., priority 2009, dated 2012).

System: acute hypoxia-induced pulmonary hypertension
Experiment: Acute hypoxia-induced pulmonary hypertension in rats (mean pulmonary arterial pressure)
Format: in vivo, rat
Procedure: Measurement of Pulmonary and Systemic Arterial Pressure
Male Sprague-Dawley rats were obtained from Charles River Breeding Laboratories (Wilmington, Mass.) at 9-10 wk of age. For pulmonary arterial pressure measurement, a closed-chest technique (1-4). Under ketamine (80 mg/kg) and xylazine (5 mg/kg) anesthesia, a small transverse cut was made in the proximal right external jugular vein through passed. The introducer was a blunted 7.5 cm, 19-gauge needle with the tip turned up 30 degrees. The Silastic catheter filled with heparinsaline solution was passed through the introducer and attached by a 25 gauge blunted needle to a pressure transducer (model CP-01, Century Technology, Inglewood, Calif.) coupled to a polygraph (model 7, Grass Instruments, Quincy, Mass.). After the introducer was placed in the right ventricular cavity, the tip was directed anteriorly. The catheter was then advanced into the pulmonary artery. Catheter position was identified by the pressure tracing. The introducer was slipped out over the catheter and removed after a typical pulmonary arterial pressure tracing was recorded. […] One day after catheterization, mean pulmonary arterial pressure (MPAP), mean systemic arterial pressure (MSAP) were recorded through the pulmonary and femora arterial catheters via transducers coupled to the polygraph. […]

Structure (SMILES): CN1CCCC[C@H]1CCc1ccccc1NC(=O)/C=C/c1ccccc1 [Iferanserin, S-2′-[2-(1-methyl-2-piperidyl)ethyl] cinnamanilide]
- effect on acute hypoxia-induced pulmonary hypertension (adult male Sprague-Dawley rats, 3 and 10 mg/kg p.o., given 45 min before normobaric hypoxia (10% O2) for 90 min): partially inhibited
- dose dependence of the effect on acute hypoxia-induced pulmonary hypertension (adult rats, within the range of 3-10 mg/kg, p.o.): no dose-dependent response
